In publication PMC11269756, “A ligand discovery toolbox for the WWE domain family of human E3 ligases” (Communications Biology, 2024):
“And” between values parts separate entries of the source, which are not always exact repeats. Identical values can stand only once. “Also recorded” adds a separate entry of the source.

Tests used:
Format in all cases: binding
[1] = biological target: T1, DTX1 WWE domain (Homo sapiens, UniProt Q86Y01); experiment: 15N-HSQC NMR Kd titration, DTX1 WWE domains; conditions: 15N-HSQC-NMR titration, mean of selected cross peaks ± SD
T1 construct: DTX1 (Uniprot ID: Q86Y01, residues 21–184); His6-TEV site (N, cleaved yes); made in house; host or cells: E. coli BL21 (DE3) pRARE2
T1 sequence (Q86Y01 21-184): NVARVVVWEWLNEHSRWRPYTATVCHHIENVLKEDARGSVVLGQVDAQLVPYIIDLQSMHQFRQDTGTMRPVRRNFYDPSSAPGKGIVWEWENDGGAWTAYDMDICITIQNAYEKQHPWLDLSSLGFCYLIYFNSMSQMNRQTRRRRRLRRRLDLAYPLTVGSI
Excerpt: (§1) Protein-observed NMR using isotopically labeled proteins has emerged as one of the most sensitive and widely employed methods for fragment-based screening. Our objective was to generate ^15N-labeled proteins of WWE domain family members, thereby enabling ^15N-HSQC NMR studies. This approach provides a protein-based fragment screening assay to identify and orthogonally validate binders for the WWE domain family proteins. We conducted NMR-based Kd determination assays for HUWE1, DTX1, RNF146, TRIP12, and DTX2 (Fig. 2c–f, Fig. S3). The small size of the WWE domain constructs (10–20 kDa) yielded NMR spectra with well-resolved individual peaks when analyzed on a 600 MHz spectrometer. This facilitated the determination of Kd values for ligands in the fast-exchange regime by monitoring chemical shift perturbations in the ligand titration. […] The adenosine-based ligands were titrated in the range of 62.5 µM to 2 mM for each WWE domain protein. However, due to resource intensive preparation, iso-ADPr was only titrated up to 500 µM. We then plotted the Δδ chemical shifts and ligand concentrations to determine a saturation curve. For each Kd determination, the chemical shifts of at least two separate peaks were analyzed and reported as the mean with standard deviation (Table 1, Figs. S4–7).
(§2) Titration curves were calculated as previously described.

[2] = biological target: T2, HUWE1 WWE domain (Homo sapiens, UniProt Q7Z6Z7); experiment: 19F NMR displacement assay with 2F-ATP (1) reporter, HUWE1; conditions: 100 µM reporter, 0.5 µM protein, competitor up to 1 mM
T2 construct: HUWE1 (Uniprot ID: Q7Z6Z7, residues 1611–1700); His6-TEV site (N, cleaved yes); made in house; host or cells: E. coli BL21 (DE3) pRARE2
T2 sequence (Q7Z6Z7 1611-1700): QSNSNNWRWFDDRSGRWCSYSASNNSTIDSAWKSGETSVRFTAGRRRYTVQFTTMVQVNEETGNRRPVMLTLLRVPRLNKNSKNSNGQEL

[3] = biological target: T2, HUWE1 WWE domain; experiment: 15N-HSQC NMR Kd titration, HUWE1 WWE domain; conditions: 15N-HSQC-NMR titration, mean of selected cross peaks ± SD
Excerpt: as §1, §2
Compound hit confirmation was carried out in single compound samples using the same conditions and parameters as for compound mixtures.

[4] = biological target: T3, DTX2 WWE domain (Homo sapiens, UniProt Q86UW9); experiment: 19F NMR displacement assay with 2F-ATP (1) reporter, DTX2; conditions: 100 µM reporter, 0.5 µM protein, competitor up to 1 mM
T3 construct: DTX2 (Uniprot ID: Q86UW9, residues 3–189); His6-TEV site (N, cleaved yes); made in house; host or cells: E. coli BL21 (DE3) pRARE2
T3 sequence (Q86UW9 3-189): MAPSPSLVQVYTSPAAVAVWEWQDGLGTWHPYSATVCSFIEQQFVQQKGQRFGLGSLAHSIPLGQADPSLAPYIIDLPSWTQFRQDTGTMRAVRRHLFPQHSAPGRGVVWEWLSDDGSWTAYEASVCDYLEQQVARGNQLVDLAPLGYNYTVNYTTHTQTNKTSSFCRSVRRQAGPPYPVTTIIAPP

[5] = biological target: T4, TRIP12 WWE domain (isoform 2) (Homo sapiens, UniProt Q14669); experiment: 15N-HSQC NMR Kd titration, TRIP12 WWE domain; conditions: 15N-HSQC-NMR titration, mean of selected cross peaks ± SD
T4 construct: TRIP12-2 (Uniprot ID: Q14669, residues 759–847); His6-TEV site (N, cleaved yes); made in house; host or cells: E. coli BL21 (DE3) pRARE2
T4 sequence (Q14669 with tags, fused parts or gaps): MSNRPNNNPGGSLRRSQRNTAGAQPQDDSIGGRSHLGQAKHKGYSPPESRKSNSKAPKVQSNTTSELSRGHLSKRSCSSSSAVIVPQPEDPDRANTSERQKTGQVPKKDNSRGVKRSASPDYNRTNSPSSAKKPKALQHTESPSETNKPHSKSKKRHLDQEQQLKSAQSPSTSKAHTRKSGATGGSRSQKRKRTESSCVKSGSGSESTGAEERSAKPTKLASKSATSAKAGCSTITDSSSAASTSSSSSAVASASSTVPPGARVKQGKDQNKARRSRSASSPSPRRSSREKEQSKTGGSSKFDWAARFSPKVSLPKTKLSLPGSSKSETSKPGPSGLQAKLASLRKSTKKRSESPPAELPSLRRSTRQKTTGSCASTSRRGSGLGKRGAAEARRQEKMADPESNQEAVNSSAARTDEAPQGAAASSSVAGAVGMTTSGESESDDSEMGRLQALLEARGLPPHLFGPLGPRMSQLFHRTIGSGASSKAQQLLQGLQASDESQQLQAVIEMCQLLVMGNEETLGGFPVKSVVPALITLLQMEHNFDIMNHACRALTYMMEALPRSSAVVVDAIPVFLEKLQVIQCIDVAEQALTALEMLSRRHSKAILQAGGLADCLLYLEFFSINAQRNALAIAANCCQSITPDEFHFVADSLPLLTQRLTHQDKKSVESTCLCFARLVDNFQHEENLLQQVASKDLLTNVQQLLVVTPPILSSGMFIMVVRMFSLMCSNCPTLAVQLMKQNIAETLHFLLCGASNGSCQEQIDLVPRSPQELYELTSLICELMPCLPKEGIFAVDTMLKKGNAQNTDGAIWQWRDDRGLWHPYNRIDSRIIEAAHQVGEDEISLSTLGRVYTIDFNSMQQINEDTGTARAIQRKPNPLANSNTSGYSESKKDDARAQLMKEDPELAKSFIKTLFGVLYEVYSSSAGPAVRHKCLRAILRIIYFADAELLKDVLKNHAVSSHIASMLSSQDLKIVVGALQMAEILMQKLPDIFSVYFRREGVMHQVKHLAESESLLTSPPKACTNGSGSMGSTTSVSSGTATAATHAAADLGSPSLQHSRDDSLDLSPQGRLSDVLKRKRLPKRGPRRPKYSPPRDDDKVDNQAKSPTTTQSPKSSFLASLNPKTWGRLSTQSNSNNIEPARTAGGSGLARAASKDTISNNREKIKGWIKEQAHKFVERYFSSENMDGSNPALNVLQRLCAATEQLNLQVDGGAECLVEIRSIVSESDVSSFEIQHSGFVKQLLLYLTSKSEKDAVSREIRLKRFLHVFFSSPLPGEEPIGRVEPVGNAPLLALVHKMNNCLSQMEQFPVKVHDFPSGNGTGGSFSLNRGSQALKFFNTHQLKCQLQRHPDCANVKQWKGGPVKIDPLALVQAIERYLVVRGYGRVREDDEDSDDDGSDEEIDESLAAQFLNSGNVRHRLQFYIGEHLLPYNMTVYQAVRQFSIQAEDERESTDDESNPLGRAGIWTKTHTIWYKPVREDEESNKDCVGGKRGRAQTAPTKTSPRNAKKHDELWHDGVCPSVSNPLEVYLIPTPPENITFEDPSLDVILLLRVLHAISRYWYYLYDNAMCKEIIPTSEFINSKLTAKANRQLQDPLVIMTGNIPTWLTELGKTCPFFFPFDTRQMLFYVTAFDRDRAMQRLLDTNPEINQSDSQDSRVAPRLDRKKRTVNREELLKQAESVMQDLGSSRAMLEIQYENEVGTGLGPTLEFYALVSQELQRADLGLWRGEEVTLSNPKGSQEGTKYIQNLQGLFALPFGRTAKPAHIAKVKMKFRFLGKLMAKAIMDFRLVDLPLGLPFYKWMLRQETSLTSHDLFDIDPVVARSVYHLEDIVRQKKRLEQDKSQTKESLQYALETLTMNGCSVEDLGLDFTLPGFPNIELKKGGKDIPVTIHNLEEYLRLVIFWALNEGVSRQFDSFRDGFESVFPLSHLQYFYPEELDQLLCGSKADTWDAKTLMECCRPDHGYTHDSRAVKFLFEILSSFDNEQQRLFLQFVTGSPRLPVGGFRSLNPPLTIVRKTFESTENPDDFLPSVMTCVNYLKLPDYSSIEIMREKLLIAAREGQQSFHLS
Excerpt: as §1, §2

[6] = biological target: T3, DTX2 WWE domain; experiment: 15N-HSQC NMR Kd titration, DTX2 WWE domains; conditions: 15N-HSQC-NMR titration, mean of selected cross peaks ± SD
Excerpt: as §1, §2

[7] = biological target: T5, RNF146 WWE domain (Homo sapiens, UniProt Q9NTX7); experiment: 15N-HSQC NMR Kd titration, RNF146 WWE domain; conditions: 15N-HSQC-NMR titration, mean of selected cross peaks ± SD
T5 construct: RNF146 (Uniprot ID: Q9NTX7, residues 100-184); His6-TEV site (N, cleaved yes); made in house; host or cells: E. coli BL21 (DE3) pRARE2
T5 sequence (Q9NTX7 100-184): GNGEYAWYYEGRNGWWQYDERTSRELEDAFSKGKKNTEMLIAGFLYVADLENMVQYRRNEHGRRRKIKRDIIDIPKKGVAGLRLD

Row | Kd [1] [µM] | displacement of 19F reporter 2F-ATP (1) [2] | Kd [3] | displacement of 19F reporter 2F-ATP (1) [4] | Kd [5] [µM] | Kd [6] [µM] | Kd [7] [µM] | SMILES
1 | 659 ± 294 | increasing signal intensity | 59 ± 5 µM | too weak for displacement | 316 ± 22 | 802 ± 84 |  | Nc1ncnc2c1ncn2[C@@H]1O[C@H](COP(=O)(O)OP(=O)(O)OP(=O)(O)O)[C@@H](O)[C@H]1O [ATP]
2 | 550 ± 111 |  | 15 ± 2 µM |  | 125 ± 20 | 455 ± 17 | 114 ± 31 | Nc1ncnc2c1ncn2[C@@H]1O[C@H](COP(=O)(O)OP(=O)(O)OP(=O)(O)O)[C@@H](O)[C@H]1F [2’F-ATP 2]
3 |  | no displacement | 1760 µM |  |  |  |  | O=C(O)CN1C(=O)c2ccccc2C1=O [compound (3), N-(Carboxymethyl)-phthalimide]
4 | 329 ± 115 |  | 30 µM and 27 µM |  | 127 ± 9 | > 2000 | 49 ± 18 | Nc1nc(F)nc2c1ncn2[C@@H]1O[C@H](COP(=O)(O)OP(=O)(O)OP(=O)(O)O)[C@@H](O)[C@H]1O [2F-ATP 1]

Row | SMILES | Kd [1] [µM] | displacement of 19F reporter 2F-ATP (1) [2] | Kd [3] | displacement of 19F reporter 2F-ATP (1) [4] | Kd [5] [µM] | Kd [6] [µM] | Kd [7] [µM]
5 | O=C(O)CN1C(=O)c2ccc(C(=O)O)cc2C1=O [compound (4)] |  | clear dose-dependent displacement; also recorded: showed displacement | 202 µM |  |  |  | 
